Data taken from patent publication US20230117034A1, “PYRAZOLOTRIAZINES” (Bayer Aktiengesellschaft, priority 2019, published 2023).

Target: T1, CDK12 protein level in CAL-120 breast cancer cells (Homo sapiens, UniProt Q9NYV4)
T1 construct: endogenous in cells; host or cells: CAL-120 human breast cancer cells (DSMZ ACC 459)
Assay: CDK12 protein level: Protein Simple (CDK12, CAL-120)
Assay type: cell-based
Conditions: CAL-120 cells, 18 h with compound, CDK12/HSP90 peak area ratio vs vehicle, median, read-out: CDK12 protein level in CAL-120 breast ca cells, DC50-[mol/l] (median)
Procedure, shortened: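 Cells grown 24 h, then treated with compounds for 18 h at 37° C against DMSO controls. Lysates (0.4 microgramms protein) run on Protein Simple 66-440 kDa size assay with CDK12 and HSP90 loading-control antibodies. CDK12/HSP90 peak-area ratios versus vehicle gave DC50 (50% reduction) by 4-parameter fit.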

T1 sequence (Q9NYV4 whole entry): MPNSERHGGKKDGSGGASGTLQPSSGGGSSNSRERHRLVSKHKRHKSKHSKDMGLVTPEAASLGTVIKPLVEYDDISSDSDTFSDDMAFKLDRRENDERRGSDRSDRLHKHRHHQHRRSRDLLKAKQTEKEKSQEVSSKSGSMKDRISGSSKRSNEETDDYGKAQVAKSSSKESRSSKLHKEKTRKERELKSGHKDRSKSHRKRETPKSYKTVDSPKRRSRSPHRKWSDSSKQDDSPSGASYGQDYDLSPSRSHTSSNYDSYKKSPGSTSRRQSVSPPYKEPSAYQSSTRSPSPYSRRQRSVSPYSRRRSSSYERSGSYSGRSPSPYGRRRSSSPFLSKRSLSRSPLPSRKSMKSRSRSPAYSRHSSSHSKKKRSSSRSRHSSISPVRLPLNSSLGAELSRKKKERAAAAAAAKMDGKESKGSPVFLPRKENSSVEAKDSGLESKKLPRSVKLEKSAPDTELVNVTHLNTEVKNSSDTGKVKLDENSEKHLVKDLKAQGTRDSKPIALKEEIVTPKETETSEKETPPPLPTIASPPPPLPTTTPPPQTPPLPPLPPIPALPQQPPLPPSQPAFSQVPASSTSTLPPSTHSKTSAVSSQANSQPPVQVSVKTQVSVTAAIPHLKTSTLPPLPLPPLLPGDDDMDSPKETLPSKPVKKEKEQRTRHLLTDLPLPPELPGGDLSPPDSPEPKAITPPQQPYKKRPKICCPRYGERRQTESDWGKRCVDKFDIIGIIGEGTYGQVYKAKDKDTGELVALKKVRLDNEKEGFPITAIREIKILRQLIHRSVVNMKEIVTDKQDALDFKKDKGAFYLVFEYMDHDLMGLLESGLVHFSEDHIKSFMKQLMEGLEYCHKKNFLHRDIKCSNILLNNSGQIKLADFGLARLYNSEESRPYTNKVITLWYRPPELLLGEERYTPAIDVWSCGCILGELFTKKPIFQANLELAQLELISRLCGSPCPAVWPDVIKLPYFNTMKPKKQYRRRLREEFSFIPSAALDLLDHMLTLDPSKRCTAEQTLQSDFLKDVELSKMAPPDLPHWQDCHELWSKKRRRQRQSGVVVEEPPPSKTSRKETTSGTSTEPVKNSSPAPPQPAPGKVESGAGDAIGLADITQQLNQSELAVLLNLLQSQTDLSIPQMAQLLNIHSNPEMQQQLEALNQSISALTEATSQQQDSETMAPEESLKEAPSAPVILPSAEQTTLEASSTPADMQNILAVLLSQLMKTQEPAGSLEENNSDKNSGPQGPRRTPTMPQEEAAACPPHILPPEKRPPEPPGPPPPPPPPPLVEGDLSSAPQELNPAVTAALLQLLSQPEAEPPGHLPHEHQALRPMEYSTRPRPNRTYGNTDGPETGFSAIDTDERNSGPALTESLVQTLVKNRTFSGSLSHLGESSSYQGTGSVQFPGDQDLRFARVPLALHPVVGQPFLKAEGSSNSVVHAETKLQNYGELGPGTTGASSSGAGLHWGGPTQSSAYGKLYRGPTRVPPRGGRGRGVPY
T1 sequence (O75909 whole entry partner): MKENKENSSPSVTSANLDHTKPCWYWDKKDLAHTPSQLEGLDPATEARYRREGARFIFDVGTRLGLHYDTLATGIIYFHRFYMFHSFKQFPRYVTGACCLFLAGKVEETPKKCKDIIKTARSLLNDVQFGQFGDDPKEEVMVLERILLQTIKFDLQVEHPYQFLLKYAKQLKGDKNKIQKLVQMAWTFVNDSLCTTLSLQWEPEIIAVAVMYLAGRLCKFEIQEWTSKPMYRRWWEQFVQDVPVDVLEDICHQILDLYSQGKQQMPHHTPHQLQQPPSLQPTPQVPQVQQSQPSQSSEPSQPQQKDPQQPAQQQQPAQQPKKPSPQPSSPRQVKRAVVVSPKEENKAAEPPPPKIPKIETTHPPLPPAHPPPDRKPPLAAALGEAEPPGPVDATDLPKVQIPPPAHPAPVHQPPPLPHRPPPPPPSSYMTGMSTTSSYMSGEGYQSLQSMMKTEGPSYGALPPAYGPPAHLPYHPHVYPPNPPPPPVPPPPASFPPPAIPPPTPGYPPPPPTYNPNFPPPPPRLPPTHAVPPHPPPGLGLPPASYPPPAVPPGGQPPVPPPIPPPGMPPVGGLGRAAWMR

SMILES | DC50 [nM]
Brc1cnn2c(NCc3nnc(-c4ccccc4)[nH]3)nc(N3CCCC3)nc12 [Example 64, 8-bromo-N-[(5-phenyl-4H-1,2,4-triazol-3-yl)methyl]-2-(pyrrolidin-1-yl)pyrazolo[1,5-a][1,3,5]triazin-4-amine] | 87.1
COC1CCN(c2nc(NCc3nc4ccccc4[nH]3)n3ncc(Br)c3n2)CC1 [Example 62, N-[(1H-benzimidazol-2-yl)methyl]-8-bromo-2-(4-methoxypiperidin-1-yl)pyrazolo[1,5-a][1,3,5]triazin-4-amine] | 128
CC(C)c1cnn2c(NCc3nc4ccccc4[nH]3)nc(N3CCOCC3)nc12 [Example 1, N-[(1H-benzimidazol-2-yl)methyl]-2-(morpholin-4-yl)-8-(propan-2-yl)pyrazolo[1,5-a][1,3,5]triazin-4-amine] | 57.4

These reach a lower DC50. Values come first.

DC50 [nM] | SMILES
43.7 | Fc1ccc(-c2cnc(CNc3nc(N4CCOCC4)nc4c(Br)cnn34)[nH]2)cc1 [Example 66, 8-bromo-N-{[5-(4-fluorophenyl)-1H-imidazol-2-yl]methyl}-2-(morpholin-4-yl)pyrazolo[1,5-a][1,3,5]triazin-4-amine]
41.8 | COC(=O)C1CCN(c2nc(NCc3nc4ccccc4[nH]3)n3ncc(Br)c3n2)CC1 [Example 63, methyl 1-(4-{[(1H-benzimidazol-2-yl)methyl]amino}-8-bromopyrazolo[1,5-a][1,3,5]triazin-2-yl)piperidine-4-carboxylate]
